One experiment concerns BJ. The experiment can be described thus: Cytotoxicity against human BJ cells after 72 hrs by Cell-Titer Glo assay. It counts as cell-based.
A further experiment has as its system Raji. The experiment can be described thus: Cytotoxicity against human Raji cells after 72 hrs by Cell-Titer Glo assay. The format is functional, cell-based.
A further experiment deals with HEK293. The experiment can be described thus: Cytotoxicity against HEK293 cells after 72 hrs by Cell-Titer Glo assay. It counts as cell-based. The note with it: Homo sapiens, HEK293, 72 h.
Experiment [1] in a line: Cytotoxicity against human NALM6 cells after 72 hrs by Cell-Titer Glo assay. It counts as functional, cell-based. The note with it: NALM-6, 72 h.
Experiment [2] can be described thus: Cytotoxicity against human SEM cells after 72 hrs by Cell-Titer Glo assay. It counts as functional, cell-based.
The test system of the next experiment is HepG2. The experiment can be described thus: Cytotoxicity against human HepG2 cells after 72 hrs by Cell-Titer Glo assay. The format is functional, cell-based. The following applies: HepG2, 72 h.

As usually defined, the EC50 is the concentration that produces a half-maximal response. Read a high EC50 as a less potent agent.

Where only a bound is given, the exact number is not on record here.

In the case of `C=C[C@@](C)(/C=C/c1ccc(Nc2ccc(Cl)c(F)c2)cc1)CCC=C(C)C`, the EC50 in the experiment on BJ was more than 36.6 µM; in the experiment on Raji, more than 26 µM; with HEK293, more than 36.6 µM; in experiment [1], more than 43.5 µM; in experiment [2] it was more than 36.6 µM; in the experiment on HepG2, more than 52.1 µM.
Turning to `CC(C)=CCC[C@@](C)(/C=C/c1ccc(C)cc1)/C=C/c1ccc(O)cc1`, the EC50 is more than 36.6 µM with BJ; more than 26 µM in the experiment on Raji; more than 36.6 µM with HEK293; more than 43.5 µM in experiment [1]; more than 36.6 µM in experiment [2]; more than 52.1 µM with HepG2.
Turning to `CC(C)=CCC[C@](C)(/C=C/c1ccc(O)cc1)/C=C/c1cccc(F)c1`, the EC50 in the experiment on BJ is more than 36.6 µM; in the experiment on Raji, more than 26 µM; in the experiment with HEK293, more than 36.6 µM; in experiment [1], more than 43.5 µM; in experiment [2], more than 36.6 µM; with HepG2, more than 52.1 µM.
In the case of `C=C[C@@](C)(/C=C/c1ccc(-c2ccc(Cl)c(Cl)c2)cc1)CCC=C(C)C`, the EC50 in the experiment with BJ was more than 36.6 µM; with Raji, more than 26 µM; in the experiment on HEK293, more than 36.6 µM; in experiment [1] it was more than 43.5 µM; in experiment [2], more than 36.6 µM; in the experiment on HepG2 it was more than 52.1 µM.
In the case of `C=C[C@@](C)(/C=C/c1ccc(Nc2cc(C(F)(F)F)cc(C(F)(F)F)c2)cc1)CCC=C(C)C`, the EC50 in the experiment on BJ was more than 36.6 µM; with Raji, more than 26 µM; in the experiment with HEK293 it was more than 36.6 µM; in experiment [1], more than 43.5 µM; in experiment [2] it was more than 36.6 µM; in the experiment on HepG2, more than 52.1 µM.
As for `CC(C)=CCC[C@@](C)(/C=C/c1ccccc1)/C=C/c1ccc(O)cc1`, the EC50 was more than 36.6 µM in the experiment on BJ; more than 26 µM with Raji; more than 36.6 µM in the experiment on HEK293; more than 43.5 µM in experiment [1]; more than 36.6 µM in experiment [2]; more than 52.1 µM in the experiment on HepG2.
As for `C=C[C@@](C)(/C=C/c1ccc(Nc2ccc(Cl)cc2)cc1)CCC=C(C)C`, the EC50 in the experiment on BJ was more than 36.6 µM; in the experiment on Raji, more than 26 µM; in the experiment with HEK293 it was more than 36.6 µM; in experiment [1], more than 43.5 µM; in experiment [2], more than 36.6 µM; with HepG2, more than 52.1 µM.
As to `C=C[C@@](C)(/C=C/c1ccc(Nc2cccc(OC(F)(F)F)c2)cc1)CCC=C(C)C`, the EC50 was more than 36.6 µM in the experiment on BJ; more than 26 µM with Raji; more than 36.6 µM in the experiment with HEK293; more than 43.5 µM in experiment [1]; more than 36.6 µM in experiment [2]; more than 52.1 µM with HepG2.
For `C=C[C@@](C)(/C=C/c1ccc(Nc2ccc(OC(F)(F)F)cc2)cc1)CCC=C(C)C`, the EC50 with BJ was more than 36.6 µM; in the experiment on Raji, more than 26 µM; in the experiment with HEK293, more than 36.6 µM; in experiment [1] it was more than 43.5 µM; in experiment [2], more than 36.6 µM; in the experiment on HepG2, more than 52.1 µM.
For `C=C[C@@](C)(/C=C/c1ccc(Nc2ccc(OC)c(OC)c2)cc1)CCC=C(C)C`, the EC50 in the experiment with BJ is more than 36.6 µM; in the experiment with Raji it was more than 26 µM; in the experiment with HEK293, more than 36.6 µM; in experiment [1] it was more than 43.5 µM; in experiment [2], more than 36.6 µM; with HepG2, more than 52.1 µM.
For `C=C[C@@](C)(/C=C/c1ccc(Nc2cc(F)c(F)cc2F)cc1)CCC=C(C)C`, the EC50 was more than 36.6 µM with BJ; more than 26 µM with Raji; more than 36.6 µM in the experiment on HEK293; more than 43.5 µM in experiment [1]; more than 36.6 µM in experiment [2]; more than 52.1 µM in the experiment with HepG2.
For `C=C[C@@](C)(/C=C/c1ccc(-c2ccccc2)cc1)CCC=C(C)C`, the EC50 with BJ was more than 36.6 µM; in the experiment with Raji it was more than 26 µM; in the experiment on HEK293, more than 36.6 µM; in experiment [1] it was more than 43.5 µM; in experiment [2], more than 36.6 µM; with HepG2, more than 52.1 µM.
Take `C=C[C@@](C)(/C=C/c1ccc(Nc2ccc(F)cc2)cc1)CCC=C(C)C`: the EC50 in the experiment on BJ is more than 36.6 µM; in the experiment with Raji, more than 26 µM; in the experiment with HEK293, more than 36.6 µM; in experiment [1] it was more than 43.5 µM; in experiment [2], more than 36.6 µM; in the experiment with HepG2, more than 52.1 µM.

For the origin of these results see ChEMBL document CHEMBL3779792, “Anti-proliferative evaluation of monoterpene derivatives against leukemia” (Eur J Med Chem, 2016).
